The conditions of series [1]: second part of Table 2.
For series [2] the following is noted: product to be used in the trial.
Series [3] relates to patients suffering from vitiligo. Kind of series: Clinical trial in humans, repigmentation in vitiligo.
For series [4] the following is noted: toxicological, teratologic and clinical trials.
Setting [5] is: topical, 3 times a week, 6 months, Melagenina Plus-resistant patients.

The values below come from patent US20080207733A1, “Composition for the Treatment of Vitiligo” (priority 2003, published 2008).

Several values for one entry are separate records, joined by “and”; a condition that tells them apart may be missing. Identical values can stand only once.

With `O=C(O)[C@@H]1CCCN1` [L-Proline], the “Spectrum determination, Fresh” value (200-205 nm, hydroalcoholic solution just prepared) was found to be 0.051 UA. The “Spectrum determination, 12 months” value (200-205 nm, hydroalcoholic solution, 12 months) is listed as 0.072UA. Besides, the “Spectrum determination, 24 months” value (200-205 nm, hydroalcoholic solution, 24 months) is on record as 0.071 UA. Moreover, where the note is “hydroalcoholic solution, spectrophotometric determinations and aminoacids analysis”, the “remains stable after preparing the solution” value was determined as 2 years. Besides, the “L-Proline concentration, Fresh” value in series [1] (hydroalcoholic solution just prepared) was 1.01 mg/mL. Also, in series [1] (hydroalcoholic solution, 12 months), the “L-Proline concentration, 12 months” value came out at 1.00 mg/mL. Besides, the “L-Proline concentration, 24 months” value in series [1] (hydroalcoholic solution, 24 months) was 1.00 mg/mL. Also, the “dermal and ophthalmic irritability” value in series [2] is “innocuousness”. Moreover, the “reversibility of repigmentant effect once application is discontinued” value in series [3] (human, in vivo) was “irreversible”. Also, the “Effect Evaluation” value in series [3] (per patient No. 1-21, 1.5 mg/mL hydroalcoholic solution at 80%, topical, 3 times a week, 6 months) was “Noteworthy (10×) and Poor (2×)”. The “increase of lesions or local or systemic side effect” value in series [3] (topical, 3 times a week, 6 months) is given as “no increase of lesions or local or systemic side effect were reported in any of the cases”. In series [3] (setting [5]), the “patients that did not show response to the treatment” value is 2 patients of 22 and the “patients that showed noteworthy to moderate response” value was determined as 18 patients. The adverse reactions entry in series [4] is listed as “No severe adverse reactions were reported”.
